Consider one molecule from patent EP0164904B1, “Method of determining an infusion rate profile and infusion device” (THE UNIVERSITY OF MELBOURNE, priority 1984, dated 1985).

Data set [1] is described as follows: Plasma Drug Efflux profile derived from actual infusion data (iterative infusion method, scaled to Lean Body Mass). The data set is classed as in vivo, human subjects. Conditions: Figure 9, after three iterations.
Excerpt: Central to the approach used in this method is the development of a new concept in pharmacokinetics, the Plasma Drug Efflux. This concept simply stated is that at any instant, if the plasma concentration of a drug is neither rising nor falling, the rate of delivery of the drug to the circulation ie. the infusion rate, must equate to the rate at which the drug is being lost from the circulation. It is - unimportant whether the loss is by distribution, metabolism or excretion.
Then if drug is administered by some arbitrary infusion scheme Q(t), the plasma concentration is C(t) and the rate of drug loss from the plasma may be called the Plasma Drug Efflux, Ep(t).
If the plasma drug concentration is constant so that the amount of drug is not changing then the instantaneous rate of drug influx to the plasma (the infusion rate), and the instantaneous concentration in the plasma may be used as an estimate of drug efflux from the plasma, is an estimate of i.e.: [drawing 1]
The efflux estimate may then be plotted against time, and will essentially describe a dosing-rate/concentration profile as a function of time which will result in a plateau concentration for all time. […]
The conditions of data set [2]: plasma concentration, cited from earlier work.
A short description of data set [3]: Infusion generated from the Efflux profile; arterial plasma concentration followed over the infusion period. The data set is classed as in vivo, patient. The source says: Describing first the preferred method of defining a generalised infusion rate profile as applied to anaesthetic drugs, the method comprises the steps of: • (a) first determining the lean body mass (LBM) of a group of subjects. A convenient way of doing this in human subjects is to use the method described by Hallynck T.H. et al in "Should clearance be normalized to body surface of to lean body mass?" in British Journal of Clinical Pharmacology, p 523-526, Volume 11, (1981), who presented the following formulae:- Males: LBM = 1.10 x weight - 128 x (weight²/height²) Females: LBM = 1.07 x weight - 148 x (weight²/height²) • (b) Following administration of a suitable bolus dose of a desired drug to achieve unconsciousness, the drug is infused at an arbitrary but known rate throughout the infusion. […]

As for `C=CCC1(C(C)C#CCC)C(=O)N=C(O)N(C)C1=O` (centres unmarked) [methohexitone], the “shape of the Plasma Drug Efflux profile” value in data set [1] is reported as “bears little relationship to an exponential function, having two distinct humps”. The “concentration likely to result in wakening of the patient” value in data set [2] (fall to below) is recorded as “below 3 mg/l”. Also, the “concentration at which severe depression of the heart and breathing may occur” value in data set [2] is 10000 ng/mL. Also, the “arterial plasma drug concentrations” value in data set [3] (infusion by Efflux profile of Figure 9 in a typical patient (Figure 10), over a period of five hours) was “constant and desired arterial plasma drug concentrations”. Further, the “departures from the desired level” value in data set [3] (infusion by Efflux profile, many patients) is recorded as “no material departures from the desired level in any patient”.
